Earlier results on two molecules are cited in patent US5925665A, “Imidazoline compounds” (Adir Et Compagnie, priority 1996, dated 1999).

The data set has as its system mice. The following applies: general statement on reference products.

Turning to `CNCCCN1c2ccccc2CCc2ccccc21` [desipramine], the “duration of immobility, known antidepressants” value is listed as “decrease this duration of immobility”.

Turning to `CN(C)CCCN1c2ccccc2CCc2ccccc21` [imipramine], the “duration of immobility, known antidepressants” value was “decrease this duration of immobility”.
